Earlier results in patent EP0200541B1, “Immunochemical method and analytical composition and element for determination of creatine kinase-MB” (EASTMAN KODAK COMPANY (a New Jersey corporation), priority 1985, dated 1986).

What was measured:
total AK = conditions: AMP:ADP molar ratio of 10:1
erythrocyte AK = molecular target: T1, erythrocyte AK (Homo sapiens, UniProt P00568); conditions: 0.01 millimolar DAPP
T1 sequence (P00568 1-194): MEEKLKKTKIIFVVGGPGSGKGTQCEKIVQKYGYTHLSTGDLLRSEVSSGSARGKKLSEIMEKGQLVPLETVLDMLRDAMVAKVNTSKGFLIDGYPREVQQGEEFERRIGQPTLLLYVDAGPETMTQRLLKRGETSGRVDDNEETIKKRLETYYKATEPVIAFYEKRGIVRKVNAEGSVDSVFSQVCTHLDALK

muscle AK = molecular target: T2, muscle AK (Homo sapiens, UniProt P00568); conditions: 0.01 millimolar DAPP
T2 sequence (P00568 1-194): T1 sequence (P00568 1-194)

liver AK = liver AK (Homo sapiens, UniProt P54819)
CK-MB = CK-MB (Homo sapiens, UniProt P06732+P12277); conditions: 0.5-1 millimolar DAPP
Chain of CK-MB (P06732 whole entry): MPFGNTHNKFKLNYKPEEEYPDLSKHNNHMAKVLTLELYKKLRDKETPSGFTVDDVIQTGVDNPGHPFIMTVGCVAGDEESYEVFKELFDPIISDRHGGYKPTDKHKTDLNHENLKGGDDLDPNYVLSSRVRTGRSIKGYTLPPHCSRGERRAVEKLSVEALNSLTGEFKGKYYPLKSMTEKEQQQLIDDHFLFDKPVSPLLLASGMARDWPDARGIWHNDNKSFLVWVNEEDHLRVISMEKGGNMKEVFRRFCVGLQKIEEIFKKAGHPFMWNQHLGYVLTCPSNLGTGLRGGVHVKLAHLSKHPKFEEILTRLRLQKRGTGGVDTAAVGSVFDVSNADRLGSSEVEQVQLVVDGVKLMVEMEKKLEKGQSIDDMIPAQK
Chain of CK-MB (P12277 whole entry): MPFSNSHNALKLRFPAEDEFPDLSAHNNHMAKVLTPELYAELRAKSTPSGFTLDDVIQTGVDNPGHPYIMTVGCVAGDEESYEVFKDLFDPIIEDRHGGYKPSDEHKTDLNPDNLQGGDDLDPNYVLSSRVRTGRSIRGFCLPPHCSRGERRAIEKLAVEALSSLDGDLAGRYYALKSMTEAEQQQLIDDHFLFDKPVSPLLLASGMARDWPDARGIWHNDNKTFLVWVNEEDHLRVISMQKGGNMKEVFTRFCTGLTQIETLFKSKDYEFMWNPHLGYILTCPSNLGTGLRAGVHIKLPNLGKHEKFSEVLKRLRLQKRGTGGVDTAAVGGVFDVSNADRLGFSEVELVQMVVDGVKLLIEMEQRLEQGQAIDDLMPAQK

Row | erythrocyte AK inhibited (erythrocyte AK) | muscle AK inhibited (muscle AK) | liver isoenzyme inhibited (liver AK; 0.01 millimolar DAPP) | activity of liver AK inhibited (liver AK; 0.5-1 millimolar DAPP alone) | reduction of the activity of CK-MB (CK-MB) | Compound | total AK inhibited (total AK) | reduction of the activity of total CK (total CK; AMP:ADP molar ratio of 10:1) | reduction in CK activity (total CK; 0.5-1 millimolar DAPP alone)
1 | – | – | – | – | – | Nc1ncnc2c1ncn2[C@@H]1O[C@H](COP(=O)(O)O)[C@@H](O)[C@H]1O [AMP, adenosine-5'-monophosphate] | 95% | 15-20% | –
2 | 97% | 97% | 80% | up to 97% | at least 5% | Nc1ncnc2c1ncn2[C@@H]1O[C@H](COP(=O)(O)OP(=O)(O)OP(=O)(O)OP(=O)(O)OP(=O)(O)OC[C@H]2O[C@@H](n3cnc4c(N)ncnc43)[C@H](O)[C@@H]2O)[C@@H](O)[C@H]1O [DAPP, P^1,P^5-di(adenosine-5')pentaphosphate] | – | – | 5%
